Counter-ions that a name gives are not always drawn. Like-named read-outs stand apart in the source and are kept apart here.
Tests used:
Assay type in all cases: biochemical
[1] = molecular target: T1, recombinant PRL-1 (Homo sapiens, UniProt Q93096); test: In vitro phosphatase assay (DiFMUP hydrolysis), PRL-1
T1 construct: 6xHis (N, cleaved yes); made in house; host or cells: E. coli One Shot BL21 Star
T1 sequence (Q93096 1-173): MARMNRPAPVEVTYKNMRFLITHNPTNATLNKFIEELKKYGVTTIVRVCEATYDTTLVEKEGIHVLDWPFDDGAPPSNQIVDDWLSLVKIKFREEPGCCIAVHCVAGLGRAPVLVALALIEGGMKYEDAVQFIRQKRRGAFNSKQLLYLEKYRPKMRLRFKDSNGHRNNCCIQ

[2] = molecular target: T2, recombinant PRL-2 (Homo sapiens, UniProt Q12974); test: In vitro phosphatase assay (DiFMUP hydrolysis), PRL-2;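 note: PRL-2 activity read as DiFMUP hydrolysis after 20 min at room temperature with drug, enzyme first pre-reduced at 4 °C for 20 min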
T2 construct: 6xHis (N, cleaved yes); made in house; host or cells: E. coli One Shot BL21 Star
T2 sequence (Q12974 1-167): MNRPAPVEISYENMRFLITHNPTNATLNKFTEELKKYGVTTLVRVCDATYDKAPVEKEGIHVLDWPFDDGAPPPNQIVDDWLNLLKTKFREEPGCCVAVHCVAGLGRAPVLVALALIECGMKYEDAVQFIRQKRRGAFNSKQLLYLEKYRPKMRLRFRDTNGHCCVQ

[3] = molecular target: T3, recombinant PRL-3 (Homo sapiens, UniProt O75365); test: In vitro phosphatase assay (DiFMUP hydrolysis), PRL-3
T3 construct: 6xHis (N, cleaved yes); made in house; host or cells: E. coli One Shot BL21 Star
T3 sequence (O75365 whole entry): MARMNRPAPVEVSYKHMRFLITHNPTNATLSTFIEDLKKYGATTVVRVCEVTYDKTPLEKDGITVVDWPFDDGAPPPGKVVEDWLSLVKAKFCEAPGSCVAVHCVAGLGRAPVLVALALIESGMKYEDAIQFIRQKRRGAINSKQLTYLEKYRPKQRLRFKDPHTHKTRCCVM

[4] = FDA-approved drug screen, compared to DMSO
[5] = FDA-approved drug screen, activity compared to DMSO

| % Phosphatase Activity (compared to DMSO) PRL-1 [1, 4] | % Phosphatase Activity (compared to DMSO) PRL-2 [2, 4] | % Phosphatase Activity (compared to DMSO) PRL-3 [3, 4] | Compound | other results |
| --- | --- | --- | --- | --- |
| 93% | 80% | 86% | N#C[C@@H]1C[C@@H]2C[C@@H]2N1C(=O)[C@@H](N)C12CC3CC(CC(O)(C3)C1)C2 [Saxagliptin hydrate] | – |
| – | – | – | O=P1(N(CCCl)CCCl)NCCCO1 (stereo not drawn) [Cyclophosphamide Monohydrate] | % Phosphatase Activity (compared to DMSO) PRL-1 [1]: 90%; % Phosphatase Activity (compared to DMSO) PRL-2 [2]: 105%; % Phosphatase Activity (compared to DMSO) PRL-3 [3]: 94% |
| 105% | 112% | 72% | Oc1ccc(OCc2ccccc2)cc1 [Monobenzone] | – |
| 161% | 227% | 132% | CCOC(=O)C1=C(C)NC(C)=C(C(=O)OC)C1c1cccc(Cl)c1Cl (stereo not drawn) [Felodipine] | – |
| – | – | – | Cc1c(Cl)cccc1Nc1ccccc1C(=O)O [Tolfenamic Acid] | % Phosphatase Activity (compared to DMSO) PRL-1 [1, 5]: 97%; % Phosphatase Activity (compared to DMSO) PRL-2 [2, 5]: 86%; % Phosphatase Activity (compared to DMSO) PRL-3 [3, 5]: 86% |
| 108% | 113% | 71% | COc1cc2c(cc1OC)CC(=O)N(CCCN(C)C[C@H]1Cc3cc(OC)c(OC)cc31)CC2.Cl [Ivabradine HCl] | – |
| 92% | 98% | 76% | COc1ccc2cccc(CCNC(C)=O)c2c1 [Agomelatine] | – |
| 81% | 89% | 58% | C=C(c1ccc(C(=O)O)cc1)c1cc2c(cc1C)C(C)(C)CCC2(C)C [Bexarotene] | – |
| 52% | 80% | 6% | Oc1c(Cl)cc(Cl)cc1Sc1cc(Cl)cc(Cl)c1O [Bithionol, reference compound] | IC50 ([1]; 2.5 µM protein, DiFMUP at KM, read-out: Calculated IC50, PRL-1 phosphatase activity): 79 ± 25 µM; IC50 ([2]; 2.5 µM protein, DiFMUP at KM, read-out: Calculated IC50, PRL-2 phosphatase activity): 115 ± 34 µM; IC50 ([3]; 2.5 µM protein, DiFMUP at KM, read-out: Calculated IC50, PRL-3 phosphatase activity): 33 ± 2 µM |
| 95% | 100% | 64% | O=c1c(-c2ccc(O)cc2)coc2cc(O)cc(O)c12 [Genistein] | – |
| 91% | 106% | 80% | CC(N)C12CC3CC(CC(C3)C1)C2 (stereo not drawn) [Rimantadine] | – |
| 104% | 122% | 109% | CC(C)(Oc1ccc(C(=O)c2ccc(Cl)cc2)cc1)C(=O)O [Fenofibric acid] | – |
| 88% | 94% | 113% | CO/N=C(\C(=O)N[C@@H]1C(=O)N2C(C(=O)OCOC(=O)C(C)(C)C)=C(/C=C\c3scnc3C)CS[C@H]12)c1csc(N)n1 [Cefditoren Pivoxil] | – |
| – | – | – | CC(C)OC(=O)OCOP(=O)(CO[C@H](C)Cn1cnc2c(N)ncnc21)OCOC(=O)OC(C)C [Tenofovir Disoproxil Fumarate] | % Phosphatase Activity (compared to DMSO) PRL-1 [1, 5]: 95%; % Phosphatase Activity (compared to DMSO) PRL-2 [2, 5]: 93%; % Phosphatase Activity (compared to DMSO) PRL-3 [3, 5]: 82% |
| – | – | – | CCOC(=O)c1ccc(C#Cc2ccc3c(c2)C(C)(C)CCS3)nc1 [Tazarotene] | % Phosphatase Activity (compared to DMSO) PRL-1 [1, 5]: 1414%; % Phosphatase Activity (compared to DMSO) PRL-2 [2, 5]: 1439%; % Phosphatase Activity (compared to DMSO) PRL-3 [3, 5]: 148% |
| 104% | 97% | 77% | Oc1ncnc2[nH]ncc12 [Allopurinol] | – |
| 91% | 94% | 91% | NNC(=O)c1ccncc1 [Isoniazid] | – |
| 74% | 68% | 59% | Carbazochrome sodium sulfonate (AC-17) | – |
| – | – | – | CC(=O)OCC(COC(C)=O)OC(C)=O [Triacetin] | % Phosphatase Activity (compared to DMSO) PRL-1 [1, 5]: 93%; % Phosphatase Activity (compared to DMSO) PRL-2 [2, 5]: 96%; % Phosphatase Activity (compared to DMSO) PRL-3 [3, 5]: 85% |
| – | – | – | N[C@@H](CC(=O)N1CCn2c(nnc2C(F)(F)F)C1)Cc1cc(F)c(F)cc1F [Sitagliptin phosphate monohydrate] | % Phosphatase Activity (compared to DMSO) PRL-1 [1, 5]: 117%; % Phosphatase Activity (compared to DMSO) PRL-2 [2, 5]: 120%; % Phosphatase Activity (compared to DMSO) PRL-3 [3, 5]: 89% |
| 102% | 115% | 89% | OC(CCCN1CCCCC1)(c1ccccc1)c1ccccc1 [Diphenidol HCl] | – |
| 133% | 151% | 133% | Cc1ccc(F)c(NC(=O)Nc2ccc(-c3cccc4[nH]nc(N)c34)cc2)c1 [Linifanib (ABT-869)] | – |
| – | – | – | CN(C(=O)c1ccc(F)cc1C(F)(F)F)C1CCN(c2nnc(-c3ccnn3C)c3ccccc23)CC1 [Taladegib (LY2940680)] | % Phosphatase Activity (compared to DMSO) PRL-1 [1, 5]: 91%; % Phosphatase Activity (compared to DMSO) PRL-2 [2, 5]: 107%; % Phosphatase Activity (compared to DMSO) PRL-3 [3, 5]: 86% |
| 89% | 88% | 81% | Cc1nc(Nc2ncc(C(=O)Nc3c(C)cccc3Cl)s2)cc(N2CCN(CCO)CC2)n1 [Dasatinib] | – |

| Compound | % Phosphatase Activity (compared to DMSO) PRL-1 [1, 4] | % Phosphatase Activity (compared to DMSO) PRL-2 [2, 4] | % Phosphatase Activity (compared to DMSO) PRL-3 [3, 4] | other results |
| --- | --- | --- | --- | --- |
| COc1cccc2c1C(=O)c1c(O)c3c(c(O)c1C2=O)C[C@@](O)(C(C)=O)C[C@@H]3O[C@H]1C[C@H](N)[C@H](O)[C@H](C)O1 [Daunorubicin HCl] | 83% | 92% | 82% | – |
| CC(C)(C)NCC(O)c1ccc(O)c(CO)c1.CC(C)(C)NCC(O)c1ccc(O)c(CO)c1.O=S(=O)(O)O (stereo not drawn) [Salbutamol Sulfate] | 94% | 90% | 88% | – |
| CC(=O)Oc1cc2c(s1)CCN(C(C(=O)C1CC1)c1ccccc1F)C2 (stereo not drawn) [Prasugrel] | 91% | 88% | 79% | – |
| Cc1cccc(CN2CCN(C(c3ccccc3)c3ccc(Cl)cc3)CC2)c1.Cl.Cl (stereo not drawn) [Meclizine 2HCl] | 103% | 112% | 96% | – |
| COc1cc2nc(N3CCN(C(=O)C4COc5ccccc5O4)CC3)nc(N)c2cc1OC (stereo not drawn) [Doxazosin Mesylate] | 441% | 528% | 305% | – |
| Oxytocin (Syntocinon) | 82% | 68% | 81% | – |
| O=c1[nH]c(=O)n([C@H]2C[C@H](O)[C@@H](CO)O2)cc1I [Idoxuridine] | 94% | 103% | 90% | – |
| CC(C(=O)O)c1ccc(-c2ccccc2)c(F)c1 (stereo not drawn) [Flurbiprofen] | 97% | 89% | 73% | – |
| CN(CCOc1ccc(CC2SC(=O)NC2=O)cc1)c1ccccn1 (stereo not drawn) [Rosiglitazone maleate] | 104% | 113% | 87% | – |
| CN1C(CCl)Nc2cc(Cl)c(S(N)(=O)=O)cc2S1(=O)=O (stereo not drawn) [Methyclothiazide] | 100% | 114% | 62% | – |
| CC(=O)[C@H]1CC[C@H]2[C@@H]3CC=C4C[C@@H](O)CC[C@]4(C)[C@H]3CC[C@]12C [Pregnenolone] | 89% | 101% | 88% | – |
| CCOC(=O)c1ccc(OC(=O)CCCCCN=C(N)N)cc1.CS(=O)(=O)O [Gabexate Mesylate] | 93% | 103% | 80% | – |
| CC1(C)O[C@@H]2C[C@H]3[C@@H]4CCC5=CC(=O)C=C[C@]5(C)[C@H]4[C@@H](O)C[C@]3(C)[C@]2(C(=O)CO)O1 [Desonide] | 98% | 97% | 84% | – |
| CC(C)[C@H]1C(=O)N[C@@H](CCCN=C(N)N)C(=O)NCC(=O)N[C@@H](CC(=O)O)C(=O)N[C@H](Cc2ccccc2)C(=O)N1C [Cilengitide] | 100% | 91% | 96% | – |
| CN1[C@@H]2CC[C@H]1C[C@@H](OC(c1ccccc1)c1ccccc1)C2 [Benztropine mesylate] | 94% | 106% | 89% | – |
